Experimental data: PubChem BioAssay (NCI)
“And” between values parts separate entries of the source, which are not always exact repeats. Identical values can stand only once.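 How tested: cells in 96-well plates exposed to compound for 48 hours at five concentrations. Here, GI50 denotes the concentration required for 50% inhibition of growth. TGI is the concentration that stops growth completely.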

Each compound was assayed on CAKI-1 renal (assay: DTP human tumour cell line panel, 48 h).
For CC1=C[C@H]2c3c(c(O)c(O)c4oc(-c5ccccc5)cc(=O)c34)[C@H](c3cc(O)c(O)c4oc(-c5ccccc5)cc(=O)c34)[C@H]2C(C)(C)C1, the GI50 was 0.621 µM and the TGI was 4.57 µM.
N#Cc1cccnc1Cl was tested, and the TGI was > 100 µM.
With Nc1nc(F)nc2c1ncn2C1OC(CO)C(O)C1O (configuration not stated) the GI50 was 6.25 µM and the TGI was > 96.2 µM.
Compound CCn1c(SCc2ccc(C)cc2)nnc1-c1nn(-c2ccc(Cl)cc2Cl)c(-c2ccc(Cl)cc2)c1C has a GI50 of 2.83 µM and a TGI of 12.6 µM.
CCn1c(-c2ccc(OC(C)=O)cc2)c(C)c2cc(OC(C)=O)ccc21 was tested, and the TGI was > 100 µM.
O=c1cccc(C#CC#CC2=CCCCC2)o1 gave a GI50 of 6.48 µM and a TGI of 10.3 µM.
With COc1ccc(OC)c2c(C(=O)O)c(Cc3ccccc3)ccc12 the TGI was > 100 µM.
In the case of O=C(Nc1c(Cl)cc([N+](=O)[O-])cc1Cl)C(=O)C(C1OC(=O)c2ccccc21)[N+](=O)[O-] (configuration not stated), the TGI is reported as > 100 µM.
Work on Cc1c(C(=O)/C=C/c2ccccc2)[n+](=O)c2ccccc2n1[O-] yielded a TGI of 45.7 µM.
N#CC1CC2(C1)OCCS2 (configuration not stated) was tested, and the TGI was > 100 µM.
With O=C1Nc2ccc(F)cc2/C1=C/c1ccc[nH]1 the GI50 was 8.03 µM and the TGI was > 25 µM.
Br[C](Br)(Br)[Hg][c]1ccccc1 was tested, and the GI50 was 15.2 µM and the TGI was 29.8 µM.
In the case of C1C[OH+]CC[OH+]CC[OH+]CC[OH+]CC[OH+]1.[Cl-].[V], the GI50 is reported as 82.2 µM and the TGI is reported as > 100 µM.
CC(=O)C(=CN1CCN(C(=O)c2ccco2)C1=S)C(C)=O showed a GI50 of 5.19 µM and a TGI of 19.1 µM.
With COc1ccc(CC2NCCc3cc(OC)c(OC)cc32)cc1Br (configuration not stated) the TGI was > 100 µM.

These compounds were tested on SF-295 CNS (assay: DTP human tumour cell line panel, 48 h).
Compound CC1=C[C@H]2c3c(c(O)c(O)c4oc(-c5ccccc5)cc(=O)c34)[C@H](c3cc(O)c(O)c4oc(-c5ccccc5)cc(=O)c34)[C@H]2C(C)(C)C1 has a GI50 of 0.312 µM and a TGI of 1.76 µM.
For N#Cc1cccnc1Cl, the TGI was > 100 µM.
Nc1nc(F)nc2c1ncn2C1OC(CO)C(O)C1O (configuration not stated) was tested, and the TGI was > 100 µM.
For CCn1c(SCc2ccc(C)cc2)nnc1-c1nn(-c2ccc(Cl)cc2Cl)c(-c2ccc(Cl)cc2)c1C, the GI50 was 2.4 µM and the TGI was 11.7 µM.
Work on CCn1c(-c2ccc(OC(C)=O)cc2)c(C)c2cc(OC(C)=O)ccc21 yielded a TGI of 96.7 µM.
For O=c1cccc(C#CC#CC2=CCCCC2)o1, the GI50 was 9.04 µM and the TGI was 16.4 µM.
With COc1ccc(OC)c2c(C(=O)O)c(Cc3ccccc3)ccc12 the TGI was > 100 µM.
For O=C(Nc1c(Cl)cc([N+](=O)[O-])cc1Cl)C(=O)C(C1OC(=O)c2ccccc21)[N+](=O)[O-] (configuration not stated), the TGI was > 100 µM.
Cc1c(C(=O)/C=C/c2ccccc2)[n+](=O)c2ccccc2n1[O-] was tested, and the TGI was 31.5 µM.
For N#CC1CC2(C1)OCCS2 (configuration not stated), the TGI was > 100 µM.
In the case of O=C1Nc2ccc(F)cc2/C1=C/c1ccc[nH]1, the GI50 is reported as > 25 µM and the TGI is reported as > 25 µM.
Br[C](Br)(Br)[Hg][c]1ccccc1 gave a GI50 of 15.6 µM and a TGI of 30 µM.
In the case of C1C[OH+]CC[OH+]CC[OH+]CC[OH+]CC[OH+]1.[Cl-].[V], the GI50 is reported as 28.5 µM and the TGI is reported as > 100 µM.
For CC(=O)C(=CN1CCN(C(=O)c2ccco2)C1=S)C(C)=O, the GI50 was 21.7 µM and the TGI was 52.6 µM.
For COc1ccc(CC2NCCc3cc(OC)c(OC)cc32)cc1Br (configuration not stated), the TGI was 86.7 µM.

Each compound was assayed on M14 melanoma (assay: DTP human tumour cell line panel, 48 h).
Work on CC1=C[C@H]2c3c(c(O)c(O)c4oc(-c5ccccc5)cc(=O)c34)[C@H](c3cc(O)c(O)c4oc(-c5ccccc5)cc(=O)c34)[C@H]2C(C)(C)C1 yielded a GI50 of 0.887 µM and a TGI of 4.88 µM.
N#Cc1cccnc1Cl was tested, and the TGI was > 100 µM.
For Nc1nc(F)nc2c1ncn2C1OC(CO)C(O)C1O (configuration not stated), the GI50 was 6.39 µM and the TGI was > 58.6 µM and 40.2 µM.
CCn1c(SCc2ccc(C)cc2)nnc1-c1nn(-c2ccc(Cl)cc2Cl)c(-c2ccc(Cl)cc2)c1C gave a GI50 of 1.99 µM and a TGI of 10.8 µM.
CCn1c(-c2ccc(OC(C)=O)cc2)c(C)c2cc(OC(C)=O)ccc21 gave a TGI of 38.9 µM.
Compound O=c1cccc(C#CC#CC2=CCCCC2)o1 has a GI50 of 2.13 µM and a TGI of 6.34 µM.
For COc1ccc(OC)c2c(C(=O)O)c(Cc3ccccc3)ccc12, the TGI was > 100 µM.
With O=C(Nc1c(Cl)cc([N+](=O)[O-])cc1Cl)C(=O)C(C1OC(=O)c2ccccc21)[N+](=O)[O-] (configuration not stated) the TGI was > 100 µM.
